According to US20110251135A1, “INHIBITORS OF PERITONEAL SEEDING OF CANCER CELLS” (University of Utah Research Foundation, priority 2008, published 2011):
“Also recorded” adds a separate entry of the source. Where a SMILES comes first, the peptide text is derived from it. The star is where a group is joined. Cbz = O=C(OCc1ccccc1)*

What was measured:
[1] = system: colon and pancreatic cancer cells; test: Apoptosis of colon and pancreatic cancer cells during readhesion; assay type: cell-based, human
[2] = system: Su.86 cells; test: Cell survival and readhesion assay (crystal violet); assay type: cell-based, human; conditions: Su.86 (lack PPARγ); 30 μM GW 9662
Excerpt: (§1) Untreated adherent monolayers (Control) and Jurkat cells treated with TNFα (Jurkat Control) served as controls. The cells were collected and analyzed for NF-κB activation in an ELISA (see Methods). […] The floating and readherent cells were collected and lysed. Aliquots of the cell lysates were used to generate cleaved PARP immunoblots. All lanes contain equal total protein concentrations and the actin blot served as a loading control. The blots shown are typical of duplicate experiments. […] The floating cells were washed away and the adherent cells were then fixed and stained with crystal violet. The cells were lysed in deoxycholate and the intensity of the staining quantified by spectrophotometry. The results are normalized to the controls.
(§2) FIGS. 13A-B show transiently suspended Su.86 (PPARγ-negative) and HT-29 (PPARγ-positive) cancer cells were allowed to readhere in the presence of various concentrations of ciglitazone for 8 hours. The cells were also incubated with or without the irreversible PPARγ inhibitor GW9662 during readhesion. The floating cells were washed away and the adherent cells were then fixed and stained with crystal violet. The cells were lysed in deoxycholate and the intensity of the staining quantified by spectrophotometry. The results are normalized to the controls. […]

[3] = system: HT-29 cells; test: as above; assay type: cell-based, human; conditions: HT-29 (overexpress PPARγ); 30 μM GW 9662
Excerpt: as §1, §2

[4] = system: HCT-116 cells; test: Cleaved PARP immunoblot of adherent and non-adherent cells; assay type: cell-based, human; conditions: 20 μM MG-132 for 24 hours
Excerpt: FIG. 3 is a group of graphs that show NF-κB inhibitors cause apoptosis of colon cancer cells. […] The data points represent the average percent of annexin V-positive, propidium iodide-negative cells (of the total cells counted) from triplicate experiments. The error bars represent the standard error of the means. […] The results shown are a graphic representation of individual flow cytometry results expressed as the percentage of cells that were annexin V-positive of those that excluded propidium iodide. […] An immunoblot of the lysates for cleaved PARP was performed. Each lane represents equal total protein concentrations. […] The cells were allowed to adhere to plastic dishes for 1 hour after which they were washed gently in PBS and stained with crystal violet. The crystal violet stained cells were solubilized in deoxycholate and the absorbance detected in a spectrophotometer at 590 nm. The adherent cells were expressed as a fraction of the controls. Each data point represents the average of triplicate experiments and the error bars the standard errors of the means. […]
(§3) For immunodetection, the blocked blots were probed with primary antibody for 2 hours at 4° C. on a rocker. […] Alkaline phosphatase was detected by a colorimetric reaction using a BCIP (5-bromo-4-chloro-3-indolyl phosphate)/NBT (nitroblue tetrazolium) kit (Zymed).

[5] = system: transiently suspended HT-29 cells; test: Apoptosis of transiently suspended cells during readhesion (annexin V assay); assay type: cell-based, human; conditions: various concentrations, 4 hours; compared with BAY 11-7085
Procedure: HT-29 cells that were either transiently suspended with trypsin-EDTA or adherent for three days, were treated at time zero with DMSO or 10-100 μM BAY 11-7085. The percent of apoptotic cells was determined using the annexin V flow cytometry assay and graphed versus the dose of BAY 11-7085. FIG. 4B are photographs showing DLD-1, FIG. 4C are photographs showing HCT-116, and FIG. 4D are photographs showing HT-29 cells that were transiently suspended in trypsin-EDTA and allowed to readhere to glass coverslips for 1-24 hours. The cells were fixed and immunostained with an NF-κB p65 subunit monoclonal antibody.
The transiently suspended cells were lysed and allowed to bind to DNA oligonucleotides, containing the NF-κB consensus binding site, that were immobilized to 96-well plates. NF-κB protein bound to the oligonucleotides was detected by an antibody to the p65 subunit that only recognized p65 that is bound to DNA. The positive control was HeLa cells that were stimulated with TNFα. A control was performed using excess free NF-κB oligonucleotides (Competitor). […] NF-κB binding activity was determined by the TransAM assay as in FIG. 5A. […] The data shown represent typical results of three separate experiments. […] An immunoblot for COX-2 was performed.
The percentage of apoptotic cells was determined using the annexin V assay. The data points represent the averages of three experiments; bars, +−.SE. E. DLD-1 and F. HT-29 cells were transduced with an adenovirus containing the IκB super-repressor construct. After 3 days, the cells were transiently suspended and allowed to readhere in the presence of subapoptotic concentrations of BAY 11-7085 or DMSO (vehicle) for 8 hours. The data are expressed as fractions of cells surviving compared with the controls (no adenovirus) and were quantitatively determined by staining the remaining adherent cells with crystal violet.
(§4) Single cell suspensions were plated at 100,000 cells per well in 24-well plates in media containing DMSO, BAY 11-7082, BAY 11-7085, or MG-132 for 8-24 hours in an incubator. Alternatively, DMSO, BAY 11-7082, BAY 11-7085, or MG-132 were added to cells that were confluent and adherent for several days. The nonadherent cells were aspirated off with the media and spun for 3 minutes at 2,000 rpm in 15 mL polypropylene tubes. The adherent cells were washed twice with PBS, dispersed in trypsin, and spun down for 3 minutes at 2,000 rpm in 15 mL polypropylene tubes. The nonadherent and adherent cells were resuspended in 1× binding buffer (10 mM HEPES/NaOH, pH 7.4, 140 mM NaCl, and 2.5 mM CaCl2) to a final concentration of 10^6 cells/mL. 100 μL of the cell solution were transferred to a 5 mL culture tube and incubated with 5 μL of annexin V-FITC-conjugated monoclonal antibody (Pharmingen) and 10 μl, of propidium iodide (from a 50 μg/mL stock solution made in PBS) in the dark at 25° C. for 15 minutes. 400 μL of binding buffer was added to each tube and the cells were analyzed by flow cytometry immediately. The percent of apoptosis was determined as the percent of annexin V-positive, propidium iodide-negative cells of the total cells counted.
Various concentrations of BAY 11-7085 were added to HT-29 cells that were transiently suspended in trypsin-PBS for approximately 15 minutes before replating. The transiently suspended cells were quickly allowed to readhere in order to prevent anoikis. Alternatively, BAY 11-7085 was added to adherent HT-29 cell monolayers.

[6] = system: adherent HT-29 cells; test: Annexin V-FITC apoptosis assay, adherent cells; assay type: cell-based, human; conditions: adherent HT-29; 24 hours; BAY compounds at doses up to 20, MG-132 20 μM
Excerpt: FIG. 3 is a group of graphs that show NF-κB inhibitors cause apoptosis of colon cancer cells. […] The data points represent the average percent of annexin V-positive, propidium iodide-negative cells (of the total cells counted) from triplicate experiments. The error bars represent the standard error of the means. […] The results shown are a graphic representation of individual flow cytometry results expressed as the percentage of cells that were annexin V-positive of those that excluded propidium iodide. […] An immunoblot of the lysates for cleaved PARP was performed. Each lane represents equal total protein concentrations. […] The cells were allowed to adhere to plastic dishes for 1 hour after which they were washed gently in PBS and stained with crystal violet. The crystal violet stained cells were solubilized in deoxycholate and the absorbance detected in a spectrophotometer at 590 nm. The adherent cells were expressed as a fraction of the controls. Each data point represents the average of triplicate experiments and the error bars the standard errors of the means.
The data points represent the means of triplicate experiments and the error bars the standard errors of the means. […] The percent of apoptotic cells was then determined by the annexin V assay. […] The results shown are typical of two separate experiments. […] Immunoblots were performed for c-IAP-2, TRAF-1, TRAF-2, and FLIP. All lanes contain equal total protein.
as §4

[7] = system: HT-29 cells; test: Cleaved PARP immunoblot of adherent and nonadherent cells; assay type: cell-based, human; conditions: 20 μM MG-132 for 8 h
Procedure: The cells were washed twice in ice cold PBS and then lysed in 4° C. lysis buffer (50 mM HEPES, 150 mM NaCl, 1.5 mM MgCl2, 1 mM EGTA, 100 mM NaF, 10 mM Na2PO4, 1 mM Na3VO4, 10% glycerol, 1% TRITON™ X-100, and 1 μg/mL each of aprotinin, leupeptin, chymostatin, pepstatin) and clarified at 12,000 rpm at 4° C. for 15 minutes. The lysates were normalized for total protein concentration. Aliquots of the lysates were then mixed 1:1 in sample buffer (125 mM Tris-HCl (pH 6.8), 20% glycerol, 4% sodium dodecyl sulfate, 2% β-mercaptoethanol, 10 μg/mL bromophenol blue) and boiled for 3 minutes. The samples were loaded onto SDS-PAGE gels (7.5 or 10% acrylamide). The proteins were transferred to nitrocellulose from the gels and incubated in blocking buffer (1% bovine serum albumin (Bio-Rad), 100 mM Tris-Cl (pH 7.4), 0.9% NaCl, 0.1% Nonidet) overnight at 4° C.
as §3
It was confirmed in HT-29 cells that were treated with increasing concentrations of BAY 11-7085 for 24 h. After separating the HT-29 cells that remained adherent and those that became nonadherent after BAY 11-7085 treatment, the percentage of apoptotic cells was determined for each group. […]

[8] = system: JNK; test: JNK activity (phosphorylation of c-JUN) in colon and pancreatic cancer cell lines; assay type: cell-based, human
[9] = system: FLIP; test: FLIP expression in pancreatic and colon cancer cell lines; assay type: cell-based, human; conditions: anisomycin 1.5 and 4 hours
Procedure: In order to determine the role of JNK activity in FLIP downregulation, pancreatic and colon cancer cell lines were treated with anisomycin for 1.5 and 4 hours.

[10] = humans; after a single or multiple oral doses; read-out: Cmax blood levels; cited from earlier work
[11] = system: RANK; test: NF-κB activation in colon cancer cell lines incubated with soluble RANK; assay type: cell-based, human
Excerpt: Of other members of the TNF receptor superfamily, Receptor Activator of NF-κB (RANK) is highly expressed in the digestive tract. […] Thus, RANK appears to be important in the activation of NF-κB during colon cancer cell readhesion.

O=C(Nc1ccccc1)c1cc([N+](=O)[O-])ccc1Cl [GW9662]
effect of GW9662 on the pro-apoptotic activity of pioglitazone ([1]; cancer cell readhesion): failed to inhibit the pro-apoptotic activity of pioglitazone | effect of GW 9662 on the efficacy of ciglitazone [2]: did not significantly affect the efficacy of ciglitazone | effect of GW 9662 on the efficacy of ciglitazone [3]: did not significantly affect the efficacy of ciglitazone

CC(C)C[C@@H](C=O)NC(=O)[C@H](CC(C)C)NC(=O)[C@H](CC(C)C)NC(=O)OCc1ccccc1 [MG-132, N-[(phenylmethoxy)carbonyl]-leucyl-N-[(1S)-1-formyl-3-methylbutyl]-L-leucinamide] (Cbz-Leu-Leu-Leu-aldehyde)
cleaved PARP in cells that remained adherent [4]: only a small increase in cleaved PARP | cleaved PARP in non-adherent cells [4]: large increase in cleaved PARP | induction of apoptosis of HT-29 cells during readhesion [5]: more potently induced apoptosis | level of apoptosis (annexin V-positive, propidium iodide-negative cells) [6]: relatively greater for MG-132 than BAY 11-7085; also recorded: caused a greater increase in apoptosis | cleaved PARP in cells that remained adherent [7]: only a small increase in cleaved PARP | cleaved PARP in nonadherent cells [7]: large increase in cleaved PARP

COc1ccc(C[C@H]2NC[C@H](O)[C@H]2OC(C)=O)cc1 [anisomycin]
JNK activity (phosphorylation of c-JUN) [8]: readily induced JNK activity | FLIP expression [9]: caused a decrease in FLIP expression | apoptosis during cell readhesion ([1]; colon and pancreatic cancer cell lines, anisomycin alone): not as effective as BAY 11-7085, anisomycin induced apoptosis | effect on pro-apoptotic activity of BAY 11-7085 ([1]; readhering colon and pancreatic cancer cells, anisomycin with BAY 11-7085): increased the pro-apoptotic activity of BAY 11-7085

CCc1ccc(CCOc2ccc(CC3SC(=O)NC3=O)cc2)nc1 (stereo not drawn) [pioglitazone]
Cmax [10]: 2500 nM

B1: soluble RANK: soluble Receptor Activator of NF-κB, inhibits ligand-dependent RANK activation (protein, UniProt Q9Y6Q6 30-212, looked up)
extracellular domain: IAPPCTSEKHYEHLGRCCNKCEPGKYMSSKCTTTSDSVCLPCGPDEYLDSWNEEDKCLLHKVCDTGKALVAVVAGNSTTPRRCACTAGYHWSQDCECCRRNTECAPGLGAQHPLQLNKDTVCKPCLAGYFSDAFSSTDKCRPWTNCTFLGKRVEHHGTEKSDAVCSSSLPARKPPNEPHVYLP
modifications: extracellular domain
activation of NF-κB [11]: significantly reduced the activation of NF-κB
